Assay: Peptide self-assembly morphology by TEM
Type: physicochemical
Procedure: Powders of each of the peptides were dissolved in 1.5 mM Ni(Ac)2 solution to a certain concentration range (e.g. 0.0–1.5 mM) and sonicated for a period of time, and were then allowed to cool gradually to 25 °C overnight. Aged samples could be left at room temperature for more than 90 days.
TEM images were recorded using a JEM1200EX (JEOL) (Japan) operating at 100 kV dropped on a double copper net. Typically, 1.5 mM samples are diluted 10-fold and stained with 3% uranyl acetate for viewing. For AFM, liquid Ni-IH-7 ([…]) was dropped on a mica sheet and observed by Bruker Dension Icon (Germany). The AMFM data were fitted using the Analyze panel module in Igor Pro software to obtain a modulus curve, yielding the average Young’s modulus. Simultaneously, we utilized the Hertz model force curve fitting results to validate the reliability of the Young’s modulus. Cryo-EM and two-dimensional classification data of Ni-IH-7 were collected by Talos Arctica 200 kV FEG (USA). AMFM was tested using Cypher S (USA) in the presence of AC160TS-R3 (probe). Samples were diluted 50 times and dried on mica flakes. KPFM was tested using Cypher S (USA) and obtain the Contact potential difference. The standard highly oriented pyrolytic graphite was 675 mV. HAADF-STEM was obtained by JEM ARM 200 F (accelerating voltage: 200 kV) (JEOL, Japan).

Substance: ICICICI [heptapeptide ICICICI]
- assembly into nanostructure: could not form typical nanostructure

— PMC11224359, “Stable peptide-assembled nanozyme mimicking dual antifungal actions” (Nature Communications, 2024)
